Experimental data taken from ChEMBL document CHEMBL1201862, “PubChem BioAssay data set” (2004).
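Interpolation was linear, between the two tested concentrations surrounding the appropriate level; five concentrations were tested over 48 hours in 96-well plates. GI50: concentration for 50% inhibition of growth.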 Calls of active or inactive are those of the source. Cut-off read from the data, not from the text of the source: active = GI50 up to about 1.1 µM and inactive = higher.

Key:
Assay in all cases: NCI anticancer screen, dose series, 48 h
CAKI-1 = test system: CAKI-1
ACHN = test system: ACHN
UACC-62 = test system: UACC-62
EKVX = test system: EKVX
HCT-15 = test system: HCT-15
MOLT-4 = test system: MOLT-4
786-0 = test system: 786-0
NCI-H23 = test system: NCI-H23
SF-295 = test system: SF-295
UACC-257 = test system: UACC-257
SF-539 = test system: SF-539
CCRF-CEM = test system: CCRF-CEM
MDA-MB-435 = test system: MDA-MB-435
NCI-H522 = test system: NCI-H522
TK-10 = test system: TK-10
RXF 393 = test system: RXF 393
UO-31 = test system: UO-31
OVCAR-3 = test system: OVCAR-3
NCI-H226 = test system: NCI-H226
SK-MEL-5 = test system: SK-MEL-5

SMILES | GI50 (CAKI-1) | GI50 (ACHN) | GI50 (UACC-62) | GI50 (EKVX) | GI50 (HCT-15) | GI50 (MOLT-4) | GI50 (786-0) | GI50 (NCI-H23) | GI50 (SF-295) | GI50 (UACC-257) | GI50 (SF-539) | GI50 (CCRF-CEM) | GI50 (MDA-MB-435) | GI50 (NCI-H522) | GI50 (TK-10) | GI50 (RXF 393) | GI50 (UO-31) | GI50 (OVCAR-3) | GI50 (NCI-H226) | GI50 (SK-MEL-5)
C=C1C(=O)OC2C3OC(C)(CCC(O)C3COC(C)=O)CC(OC(=O)/C(=C/C)COC(C)=O)C12 (stereo not given) | 166 nM (active) | 92.5 nM (active) | 458 nM (active) | 0.424 µM (active) | 61 nM | 78.3 nM (active) | 138 nM (active) | 1.02 µM (active) | 9.12 µM (inactive) | 586 nM (active) | 1.58 µM (inactive) | 17.6 nM (active) | 109 nM (active) | 31.7 nM (active) | 165 nM (active) | 223 nM (active) | 398 nM (active) | 212 nM (active) | 2.16 µM (inactive) | 684 nM (active)
COc1cc(/C=C2\CCC/C(=C\c3ccc(O)c(OC)c3)C2=O)ccc1O [CYCLOVALONE] | 2810 nM (inactive) | 2060 nM (inactive) | 1960 nM (inactive) | 6.84 µM (inactive) | 2340 nM | 2830 nM (inactive) | 2070 nM (inactive) | 6.75 µM (inactive) | 2.92 µM (inactive) | 5010 nM (inactive) | 2.04 µM (inactive) | 525 nM (active) | 3130 nM (inactive) | 1570 nM (inactive) | 5000 nM (inactive) | 2240 nM (inactive) | 2130 nM (inactive) | 2740 nM (inactive) | 6.17 µM (inactive) | 2510 nM (inactive)
